Measurements as given in patent US6303621A, “Method for treating cancers using a diiodo thyronine analogue having no significant hormonal activity and a vinca alkaloid and compositions comprising the same” (priority 1999, dated 2001).
Entries after “also recorded” stand apart in the source; their conditions may differ.

What was measured:
MDA-MB-231 xenografts = experiment: Inhibition of MDA-MB-231 xenografts in nude mice; assay type: in vivo, human mammary cancer xenograft in nude mice
Description: The ability of human tumors to grow as xenografts in athymic mice (e.g., nude mice) provides a useful in vivo model for studying the biological response to therapies for human tumors. Since the first successful xenotransplantation of human tumors into athymic mice (Rygaard et al., 1969, Acta Pathol. Microbial. Scand. 77:758-760), many different human tumor cell lines (e.g., mammary, lung, genitourinary, gastrointestinal, head and neck, glioblastoma, bone and malignant melanomas) have been successfully transplanted and grown into nude mice. Human mammary tumor cell lines, including MCF-7, ZR75-1 and MDA-MB-231, have been established as subcutaneous grafts in nude mice (Warri et al., 1991, Intl. J. Cancer 49:616-23; Ozzello et al., 1980, Eur. J. Cancer 16:553-559; Osbourne et al., 1985, Cancer Res. 45:584-590; Siebert et al., 1983, Cancer Res. 43:2223-2239).
MDA-MB-231 (human mammary cancer) cells were obtained from American Type Culture Collection (Rockville, Md.) and maintained in the recommended growth media. Twenty nude mice were each inoculated subcutaneously with MDA-MB-231 cells (10^6 cells/[…]). To one group often mice, DIME was administered by gavage (250 mg/kg, 10 mL/kg in corn oil) once […] per day, 5 days per week, for a total of 32 days. The other (control) group of ten mice was given administered vehicle only according to the same dosing schedule. Tumors were measured twice weekly using a Vernier caliper, and the mean tumor volume was determined at each time point. Comparisons between groups were made using an unpaired, two-tailed t-test and the results were analyzed using analysis of variance.

caspase 3 = experiment: Caspase 3 in cell-free extracts treated with drugs; assay type: biochemical; details: results not shown
human cancer cells = experiment: Cytostatic / cytocidal activity of DIME analogues on human cancer cells; assay type: cell-based
Description: Such tests may also screen for the ability of a particular compound to inhibit malignant tumor cell growth in vitro or in vivo or abolish tumorigenicity of malignant cells.
As will be appreciated by the skilled artisan, many varieties of malignant tumor cell cultures and cell lines may be used to screen for activity, including but not limited to HL-60, HT-144, E-ras-20, DU-145, MDA-168, MCF-7, 855-2 and MDA-MB-231. Of course, other in vitro and/or in vivo assays as will be apparent to the skilled artisan to screen for anti-tumor and/or anti-cancer activity may also be employed to identify effective diiodo thyronine analogues useful in the present invention.

[1] = tested on: biosynthetic pathways of DNA, RNA or proteins; experiment: Metabolic action and biosynthetic pathways of DNA, RNA or proteins
nontumorigenic cells = experiment: DIME uptake / permeation in nontumor cells; assay type: cell-based; details: versus malignant counterparts
malignant tumor growth = experiment: Activity of DIME in vivo (general statement)
[2] = tested on: non-malignant mouse pituitary adenoma; details: in vivo; cited from earlier work

COC(=O)c1cc(I)c(Oc2ccc(OC)cc2)c(I)c1 [DIME, methyl 3,5-diiodo-4-(4'-methoxyphenoxy) benzoate]
Growth of mammary cancer xenografts (MDA-MB-231) (MDA-MB-231 xenografts; 250 mg/kg by gavage once daily, 5 days a week for 32 days, nude mice): significant reduction of malignant tumor growth | MDA-MB-231 tumor volume, Day 14 ± SEM (MDA-MB-231 xenografts; DIME 250 mg/kg by gavage, 5 days per week, 32 days, control 284.6 ± 42.0, p = 0.06, in mm³ (unit assumed)): 172.0 ± 34.3 | MDA-MB-231 tumor volume, Day 21 ± SEM (MDA-MB-231 xenografts; DIME 250 mg/kg by gavage, control 622.2 ± 58.1, p = 0.02, in mm³ (unit assumed)): 285.7 ± 62.4 | MDA-MB-231 tumor volume, Day 32 ± SEM (MDA-MB-231 xenografts; DIME 250 mg/kg by gavage, control 1176.6 ± 222.4, p = 0.01, in mm³ (unit assumed)): 543.8 | % decrease (tumor volume), Day 14 (MDA-MB-231 xenografts; DIME 250 mg/kg vs control): 40% | % decrease (tumor volume), Day 21 (MDA-MB-231 xenografts; DIME 250 mg/kg vs control): 54% | % decrease (tumor volume), Day 28 (MDA-MB-231 xenografts; DIME 250 mg/kg vs control): 56% | % decrease (tumor volume), Day 32 (MDA-MB-231 xenografts; DIME 250 mg/kg vs control): 54% | Caspase 3 increase in cell-free extracts (caspase 3): do not show an increase in caspase 3 | Cytostatic and cytocidal activity in cellular assays (human cancer cells): highly active | Growth of malignant cell types (human cancer cells): inhibit the growth of a variety of malignant cell types | Inhibition of biosynthetic pathways of DNA, RNA or proteins [1]: nor does it inhibit the biosynthetic pathways of DNA, RNA or proteins | Metabolic action [1]: no metabolic action | DIME uptake / permeability of nontumor cells (nontumorigenic cells): impermeable to DIME; also recorded: take up significantly less DIME | Activity in vivo (malignant tumor growth): highly active | Growth of non-malignant mouse pituitary tumor [2]: no inhibitory activity
